Values belong to the compound of their own block, whether it stands above or below them.
Key:
Trx in MDA-MB-231 cells = assay: Intracellular Trx levels by ELISA in MDA-MB-231 tumor cells; format: cell-based, human; conditions: for intracellular Trx during treatment: 0.1 μM, 1 μM and 10 μM, over 96 hours; for total intracellular Trx at end of experiment versus untreated cell cultures: end of experiment (96 hours)
Experimental: The human mammary carcinoma cell line MDA-MB-231 was obtained from the American Type Culture Collection (ATCC; Manassas, Va.) and cultured in Leibovitz's L-15 medium (Thermo Fisher Scientific, USA) supplemented with 10% (v/v) heat-inactivated fetal bovine serum (Thermo Fisher Scientific, USA), 10 mM HERBS (Sigma), 25 mM sodium bicarbonate (Sigma), 1× Glutamax (Sigma), 100 IU/mL penicillin and 100 μg/ml streptomycin (Sigma) in a 5% CO2 atmosphere at 37° C. Briefly, cells were seeded at 7500 cells/well in 96-well plates. After 24 h, the cells were treated either with different concentrations of test compounds or DMSO (0.5%; vehicle control) respectively and further incubated at 37° C. in a CO2 incubator. Culture supernatants were collected at different time points, like, immediately after cell plating (−24 h), 0 h (at the time of compound addition), and 1 h, 6 h, 12 h, 24 h, 48 h, 72 h and 96 h following compound addition. Subsequently, cells were lysed from corresponding wells with 0.1% Triton X-100 and the lysates were collected. Trx levels were measured in both the culture supernatants and cell lysates by ELISA using TXN (Human) ELISA Kit [Abnova; Cat no: KA0535] following manufacturer instruction. A standard curve was prepared using different concentrations of the Trx standard (provided in the kit) with the help of GraphPad Prism software (version 5.0; La Jolla, Calif., USA). Trx concentrations for the unknown samples were calculated from the standard curve. The data were expressed as the means of three replicates.

MDA-MB-231 xenografts = assay: MDA-MB-231 xenograft tumor growth in immunodeficient athymic nude mice; format: in vivo; conditions: for TGI: 12 doses; for final tumor volumes versus vehicle (waterfall plot): end of experiment (22 days OT-1000, 25 days OT-1129)
Experimental: Athymic nude mice were inoculated orthotopically with 5×10^6 MDA-MB-231 breast cancer cells into the mammary fat pad, and randomized for treatment when tumors reached an average volume of 80-120 mm^3 (N=12 in each group). […] Xenograft tumor volume was assessed using caliper measurements for 22 days. Athymic nude mouse model is described by Richmond A, and Su Y., Disease Models & Mechanisms. 2008; 1(2-3):78-82.
Athymic nude mice were inoculated orthotopically with 5×10^6 MDA-MB-231 breast cancer cells into the mammary fat pad, and randomized for treatment when tumors reached an average volume of 80-120 mm^3 (N=12 in each group). […] Xenograft tumor volume was assessed using caliper measurements for 25 days. MDA-MB-231 Xenograft Tumor Growth in Immunodeficient Athymic Nude Mice Treated with OT-1096 or Vehicle Control. Athymic nude mice were inoculated orthotopically with 5×10^6 MDA-MB-231 breast cancer cells into the mammary fat pad and randomized for treatment when tumors reached an average volume of 80-120 mm^3 (N=12 in each group). Mice were treated with 10 mg/kg OT-1096 via i.v. injection or with vehicle i.v., once a day using a 5 day on two day off (5/2) dosing regimen for the duration of the experiment. Xenograft tumor volume was assessed using caliper measurements for 25 days. Data is represented as mean tumor volume±SEM. Statistical significance (p<0.05) was determined using a Two-way repeated measures ANOVA with Sidak's multiple comparison test. […] Relative Luminescence Flux in Primary 4T1-Luc2 Immunocompetent Tumors Implanted into the Mammary Fat Pad of BALB/C Mice and Treated with OT-1096 or Vehicle Control. Female BALB/c immunocompetent mice were implanted with 1×10^5 4T1-luc2 murine tumor cells into the mammary fat pad. Upon growth of the tumors between 60-90 mm^3 the animals were selected for imaging. Mice were randomized and enrolled for treatment based on imaging flux values. Mice were treated once daily with 5 mg/kg of either OT-1096 or vehicle control using a 5/2 (five days on, two days off) dosing protocol. Upon days 1, 8, and 15 whole body imaging was performed on the mice to follow tumor cell luminescence. Analysis consists of primary tumor luminescence in mice. Each mouse was normalized to its own baseline luminescence from day 1. […] Data is represented as mean±SEM. Statistical significance (p<0.05) was determined using a Mann-Whitney test. The relative luminescence flux for mice treated with OT-1096 was significant compared to vehicle at day 15. Primary Tumor Growth of TM00098 Patient Derived Xenografts-Triple Negative Breast Cancer in Immunocompetent Humanized NSG Mice (Hu-CD34-NSG) Treated with OT-1096 or Vehicle Control. Female NSG mice were implanted with human CD34+ hematopoietic stem cells from multiple donors and the level of human CD45+ cells were measured in the peripheral blood 12 weeks post engraftment. Mice with >25% human CD45+ cells in the peripheral blood were determined to have a humanized immune system (Hu-CD34-NSG™) mice and were enrolled into the study. The Hu-CD34-NSG mice were implanted with TM00098 patient-derived xenografts (PDX) subcutaneously on the right flank. The TM00098 PDX cancer cells originate from a primary tumor of a patient suffering from a grade 3 TNBC invasive ductal carcinoma. When the tumors reached a volume between 60-120 mm^3 mice were treated with either 10 mg/kg OT-1096 three times a week intravenously (donor 5243 n=5, donor 5252 n=7) or with a vehicle three times a week intravenously (donor 5243 n=3, donor 5252 n=2). In case of tail vein swelling when the test substance or vehicle could not be administered intravenously, Intraperitoneal injection was applied. Tumor volume was measured using a digital caliper two times a week for the duration of the study. Animals that reached a body condition score of ≤2, a body weight loss of ≥20% or a tumor volume >2000 mm^3 were euthanized before study terminus. Animals with ulcerated tumors were also euthanized before study terminus. […]

recombinant TrxR = biological target: T1, recombinant TrxR (Rattus norvegicus, UniProt O89049); assay: Sec-independent SecTRAP activity (Juglone assay); conditions: for Juglone Act (% @ 100% DTNB inhibition): compound at the concentration that achieves 100% inhibition of TrxR in the DTNB assay
T1 sequence (O89049 1-499): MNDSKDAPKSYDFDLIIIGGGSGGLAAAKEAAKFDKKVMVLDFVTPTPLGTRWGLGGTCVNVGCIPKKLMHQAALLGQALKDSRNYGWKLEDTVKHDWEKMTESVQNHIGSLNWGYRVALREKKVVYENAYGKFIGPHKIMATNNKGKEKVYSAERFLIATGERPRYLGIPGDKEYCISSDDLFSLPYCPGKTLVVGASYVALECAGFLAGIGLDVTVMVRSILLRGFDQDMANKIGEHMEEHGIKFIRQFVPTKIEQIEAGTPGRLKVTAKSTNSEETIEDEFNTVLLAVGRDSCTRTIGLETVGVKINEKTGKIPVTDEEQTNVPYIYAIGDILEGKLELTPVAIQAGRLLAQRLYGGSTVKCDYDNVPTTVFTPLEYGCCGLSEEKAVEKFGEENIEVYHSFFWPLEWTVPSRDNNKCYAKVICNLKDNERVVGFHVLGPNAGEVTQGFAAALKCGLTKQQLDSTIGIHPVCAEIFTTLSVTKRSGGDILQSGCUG
Experimental: SecTRAP forming capabilities of compounds with TrxR was determined using the Juglone Assay. Compounds were incubated in the presence of recombinant TrxR and 250 μM NADPH for 15 minutes at concentrations fully inhibiting enzyme activity in the DTNB assay. 100 μM juglone was then added to each well and NADPH consumption was followed at OD340 to determine sustained reductive capacity at the N-terminus of TrxR (SecTRAP Activity). Activity was determined following the consumption of NADPH over time and normalized to DMSO only (Vehicle) and TrxR lacking (blank) controls.
Aliquots were used in a DTNB assay to determine inhibition of enzyme activity. […] Incubation samples were then added to a reaction buffer containing 250 μM NADPH and 100 μM juglone, whereupon NADPH consumption was followed at OD340 to determine sustained SecTRAP activity.
Higher % values for juglone activity (juglone reduction activity) in this assay are indicative of stronger prooxidant activity.

classification as SecTRAP forming agent (recombinant TrxR; DTNB assay inhibited, juglone activity retained): SecTRAP forming compound
Compound: NC(=O)c1ccc(I)c([N+](=O)[O-])c1 [Iniparib, 4-Iodo-3-nitrobenzamide, reference compound]
intracellular Trx levels in comparison to untreated cells (Trx in MDA-MB-231 cells; e.g. at the 96 h time point): reduced
TGI (MDA-MB-231 xenografts; 25 mg/kg intraperitoneally, 25 days): 9%
N-terminal juglone reduction activity (recombinant TrxR; Iniparib at 1 mM compared with OT-1000 at 1 μM (FIG. 1B)): retained at a similar level to that obtained for OT-1000

Compound: COc1ccc([N+](=O)[O-])c(S(=O)(=O)c2ccc(Cl)cc2)n1 [OT-1000, 2-((4-Chlorophenyl)sulfonyl)-6-methoxy-3-nitropyridine]
intracellular Trx during treatment (Trx in MDA-MB-231 cells): appears to decline
total intracellular Trx at end of experiment versus untreated cell cultures (Trx in MDA-MB-231 cells): lower
tumor growth inhibition rate (TGI) (MDA-MB-231 xenografts; 10 mg/kg IV, 11 times over 22 days): 37%
final tumor volumes versus vehicle (waterfall plot) (MDA-MB-231 xenografts): more frequently of lower size than vehicle-treated tumors

Juglone Act (% @ 100% DTNB inhibition) (recombinant TrxR): 86.96%
Compound: CCCCCCCCS(=O)(=O)c1nc(OC)ccc1[N+](=O)[O-] [OT-1096, 6-methoxy-3-nitro-2-(octylsulfonyl)pyridine]
intracellular levels of Trx compared with control cells (Trx in MDA-MB-231 cells; at 10 μM): reduced
time after which intracellular Trx is reduced compared with control cells (Trx in MDA-MB-231 cells; at 10 μM): 24 h
% TGI (MDA-MB-231 xenografts; 10 mg/kg IV, 5 day on two day off (5/2), 25 days): 19%
mean tumor volume compared to vehicle (MDA-MB-231 xenografts; 10 mg/kg i.v. 5/2, day 25, p<0.05): statistically significant

Juglone Act (% @ 100% DTNB inhibition) (recombinant TrxR): 74.83%
Compound: CCS(=O)(=O)c1nc(OC)ccc1[N+](=O)[O-] [OT-1129, 2-(ethylsulfonyl)-6-methoxy-3-nitropyridine]
intracellular Trx during treatment (Trx in MDA-MB-231 cells): appears to decline
total intracellular Trx at end of experiment versus untreated cell cultures (Trx in MDA-MB-231 cells): lower
TGI (MDA-MB-231 xenografts; 25 mg/kg intravenously, 25 days): 25%
final tumor volumes versus vehicle (waterfall plot) (MDA-MB-231 xenografts): more frequently of lower size than vehicle-treated tumors

Source: US20210038577A1, “THIOREDOXIN REDUCTASE INHIBITORS FOR USE IN THE TREATMENT OF CANCER” (Cinda Pharma AB, priority 2018, published 2021)
